Reference: article PMC12406196, “Anticoronavirus Activity of Uridine Glycoconjugates Containing a 1,2,3-Triazole Moiety” (Journal of Medicinal Chemistry, 2025)
“Also recorded” adds a separate entry of the source. Read-outs that look alike come from different tables or passages of the source.

Tests used:
[1] = tested on: murine hepatitis virus (MHV); set-up: method as in not printed at the place; conditions: tunicamycin treatment; ref not given; cited from earlier work
[2] = set-up: method as in not printed at the place; conditions: clinical use; ref not given; cited from earlier work
[3] = MTS-based cell viability assay in LR7 cells; set-up: species or system mouse; conditions: mouse, LR7 cells, 48 h, 0–100 μM, read-out: CC50 (MHV block)
Method: (§1) LR7, LLC-Mk2 or Vero cells were seeded in 96-well plates and cultured overnight. Next, the medium was changed to a new one supplemented with different concentrations (in triplicate) of analyzed compounds. Following the 2 days (LR7 and Vero) or 4 days (LLC-Mk-2) of incubation, CellTiter 96 AQueous nonradioactive cell proliferation assay (Promega) was performed according to the manufacturer’s instruction. The half-maximal cytotoxic concentration (CC50) was calculated as the concentration of a compound needed to reduce cell viability by 50% using GraphPad Prism software (version 5.01, GraphPad Software, San Diego, CA).

LR7 cells = assay: MTS-based cell viability assay in LR7 cells; set-up: species or system mouse; conditions: 50 μM, uninfected LR7 cells
Method: as §1

[4] = MTS-based cell viability assay in LLC-Mk2 cells; conditions: Macaca mulatta, read-out: CC50 (HCoV-NL63 block)
Method: as §1

[5] = MTS-based cell viability assay in Vero cells; conditions: African green monkey, 96 h per table footnote, read-out: CC50 (SARS-CoV-2 block)
Method: as §1

[6] = tested on: murine hepatitis virus strain A59 (MHV); assay: Reduction of MHV cytopathic effect (CPE) in LR7 cells, MTS/PMS readout; assay type: cell-based
Method: LR7 cells were seeded in a 96-well plate and cultured overnight. Next, the cells were infected with MHV at an MOI value of 0.01 in medium without FBS. Following 1 h of incubation, the medium containing the virus was collected and cells were covered with a medium supplemented with different concentrations (in triplicate) of the analyzed compounds or DMSO. 24 h p.i. cells viability was evaluated by CellTiter 96 AQueous nonradioactive cell proliferation assay (Promega) according to the manufacturer’s instruction.

[7] = tested on: murine hepatitis virus strain A59 (MHV); assay: MHV titer in medium of infected LR7 cells, plaque assay; assay type: cell-based; conditions: Murine coronavirus, read-out: IC50 (MHV)
Method: LR7 or LLC-Mk2 cells were infected at a MOI of 0.01 with MHV and HCoV-NL63, respectively, and treated with selected compounds at a concentration ranging from 0 to 50 μM. Culture supernatants were collected 1 day (MHV) or 4 days (HCoV-NL63) after infection. Virus titer was determined by plaque assay.
(§2) The half-maximum inhibitory concentration value (IC50) indicating the concentration of compound needed to reduce virus titer by 50% in comparison to the control, was evaluated by GraphPad software (version 5.01, GraphPad Software, San Diego, CA).

[8] = tested on: human coronavirus strain NL63 (HCoV-NL63); assay: HCoV-NL63 N protein expression in LLC-Mk2 cells, Western blot and densitometry; assay type: cell-based; conditions: 50 μM, MOI 0.01, 4 days p.i., Western blot/densitometry
Method: LLC-Mk2 monolayers grown in 24-well plates were infected with HCoV-NL63 at an MOI value of 0.01 for 2 h. Unbound virus was removed, and cells were cultured in medium supplemented with different concentrations of compounds. Four days postinfection, cells were collected and lysed in CellLyticM Cell Lysis Reagent (Sigma). Following the protein separation by SDS-PAGE and transfer to PVDF membranes, proteins were immunoblotted using specific mouse anti-N NL63 Abs (Eurofins, Spain) or rabbit anti-β-catenin Abs (Santa Cruz), followed by antimouse or antirabbit secondary antibodies conjugated with HRP. Proteins were visualized and analyzed by chemiluminescence using the UVITEC Cambridge Alliance MINI HD detection system. The densitometric analysis of cells treated with 50 μM dose of a panel of glycoconjugates was performed based on three biological replicates of N and β-catenin immunoblots. The N protein levels were expressed as a percentage relative to DMSO-treated infected cells, while β-catenin levels were expressed as a percentage relative to noninfected control cells. The data were presented as the ratio of N/β-catenin for each sample, normalized accordingly.

[9] = tested on: human coronavirus strain NL63 (HCoV-NL63); assay: HCoV-NL63 titer in medium of infected LLC-Mk2 cells, foci-forming assay; assay type: cell-based; conditions: for IC50: read-out: IC50 (HCoV-NL63)
Method: LR7 or LLC-Mk2 cells were infected at a MOI of 0.01 with MHV and HCoV-NL63, respectively, and treated with selected compounds at a concentration ranging from 0 to 50 μM. Culture supernatants were collected 1 day (MHV) or 4 days (HCoV-NL63) after infection. […]
as §2

SARS-CoV-2 = SARS-CoV-2 infectivity in supernatants of infected Vero cells, plaque assay; assay type: cell-based; conditions: Severe acute respiratory syndrome coronavirus 2, Vero, read-out: IC50 (SARS-CoV-2)
Method: Vero cells were seeded in appropriate plates and allowed to reach an approximately 90% confluence. For infection, 200 μL of viral suspension containing 10^5 pfu (SARS-CoV-2 strain SARS-CoV-2/human/Czech Republic/951/2020) was added to each well and incubated for 2 h at 37 °C to allow virus adsorption. After the incubation, the viral medium was removed, and the wells were washed gently with phosphate-buffered saline (PBS). Test compounds were prepared in serial dilutions to final concentrations of 50, 25, 12.5, 6.25, 3.125, and 0 μM in the medium (DMEM containing 2% FBS). The compounds were added in quadruplicate to the infected cells. The plates were then incubated for 48 h at 37 °C. Following the 48 h treatment period, the supernatants were removed, and plaque assays in Vero E6 cells were performed to assess viral titers. Cells were fixed and stained 4 days after infection to visualize plaques, as described previously.
as §2

[10] = tested on: SC-VLP entry into HEK-hACE2 cells; assay: SARS-CoV-2 VLP (SC-VLP) internalization assay in HEK-hACE2 cells, luciferase; assay type: cell-based; conditions: 12.5 μM during SC-VLP production
HCoV-NL63 RNA synthesis = assay: HCoV-NL63 RNA level in infected LLC-Mk2 cells, RT-PCR; assay type: cell-based, human coronavirus NL63; conditions: MOI 0.01, 96 h p.i.
Method: LR7 or LLC-Mk2 were cultured in 12-well plate overnight. Next, LR7 cells were infected with MHV at an MOI value of 1 for 1 h or LLC-Mk2 cells were infected with HCoV-NL63 at an MOI value of 0.01 for 2 h. Following removal of unbound virus, cells were cultured with medium supplemented with different concentrations of selected compounds. 8 h p.i. (MHV) or 96 h p.i. (HCoV-NL63) cells were collected and total RNA was isolated by CoV RNA kit (A&A Biotechnology, Poland) according to the manufacturer’s instruction. To evaluate levels of viral RNA in infected cells Qiagen One-Step RT-PCR reaction was performed. Following reverse transcription, the PCR reaction was carried out using primers: F: […], R: […] for amplification of a fragment of HCoV-NL63 genome (position: 26418–26960 bp NC_005831.2) and F: […] and R: […] for amplification of a fragment of MHV genome (position: 30341–30902 bp FJ647225.1). For internal control fragment of β-actin mRNA was reverse transcribed and amplified using primers For: […] and Rev: […].

## tunicamycin
[1]
  effect on MHV viral titers: significantly reducing viral titers

## CCCCN1C[C@H](O)[C@@H](O)[C@H](O)[C@H]1CO [miglustat]
[2]
  adverse effects in humans: diarrhea, weight loss, and flatulence

## CCCC(=O)O[C@H]1CN2CC[C@H](O)[C@@H]2[C@@H](O)[C@@H]1O [celgosivir]
[2]
  adverse effects in humans: diarrhea, weight loss, and flatulence

## CC(=O)OC[C@H]1O[C@@H](OCc2cn(C[C@H]3O[C@@H](n4ccc(=O)[nH]c4=O)[C@H](O[Si](C)(C)C(C)(C)C)[C@@H]3O[Si](C)(C)C(C)(C)C)nn2)[C@H](OC(C)=O)[C@@H](OC(C)=O)[C@H]1OC(C)=O [Compound 15, 2′,3′-di-O-tert-Butyldimethylsilyl-5′-deoxy-5′-[4-(2″,3″,4″,6″-tetra-O-acetyl-β-D-galactopyranosyloxymethyl)-1,2-3-triazol-1-yl]-uridine]
[3]
  CC50 at 48 h: 134 µM
LR7 cells
  reduction of cell viability (cytotoxicity in uninfected cells): 10–30%
[4]
  CC50 at 96 h: 49.8 µM
[5]
  CC50 at 96 h: > 100 µM
[6]; 50 μM, MOI 0.01, 24 h
  protection against MHV-induced CPE: significantly reduced cell death
[6]; MOI 0.01, 24 h p.i.
  concentration above which MHV-induced CPE was significantly reduced: above 12.5 μM
[7]; LR7, 24 h
  IC50: 7.6 µM
[7]; LR7, supplementary CSV, decimal comma
  IC50: 7.62 µM
[8]
  HCoV-NL63 N protein level: significantly reduced; also recorded: No N protein was detected
[9]; LLC-MK2, 96 h
  IC50: 6.8 µM
[9]; LLC-MK2, supplementary CSV, decimal comma
  IC50: 6.79 µM
[9]; dose-response 0–25 μM, LLC-Mk2 cells
  antiviral efficacy against HCoV-NL63 compared with compound 24: slightly lower activity
SARS-CoV-2; 48 h
  IC50: ~27.4 µM
SARS-CoV-2; supplementary CSV, decimal comma
  IC50: 27.4 µM
[10]
  reduction of SC-VLP entry compared with the control: 80%
HCoV-NL63 RNA synthesis
  concentration that effectively suppressed HCoV-NL63 RNA synthesis: 12.5 µM
